Assay results: US7767854B2, “N-substituted phenylacetamide derivative and pharmaceutical composition containing the same” (Dainippon Sumitomo Pharma Co., Ltd., priority 2005, dated 2010)

Tested on: male Std: Wistar rats
Assay: Pain test by plantar thermal stimuli (plantar test)
Type: in vivo
Conditions: Rattus norvegicus, 4 h, 50 μl of 0.03% (W/V) solution i.pl. into right hind-paw; 4 hours after administration; cut-off 25 seconds; read-out: % MPE (percent maximum possible effect, withdrawal latency)
Experimental: Experiment 1: Pain Test by Plantar Thermal Stimuli (Plantar Test)
In the present experiment, the analgesic effect of the compounds of the invention was evaluated by the measurements of withdrawal latency to noxious thermal stimuli, according to the methods of Hargreaves, et al., [Pain, 32, 77-88 (1988)] and Field, et al., [J. Pharmacol. Exp. Ther., 282, 1242-1246 (1997)].
In detail, the experiment was carried out using male Std: Wistar rats (4 rats/group; body weight, 170-220 g) and a plantar test device (Model 7370, Ugo Basile) with infrared beam as a heat source. The rat was put into an experimental cage that is an acrylic box whose bottom is made of glass and was habituated therein. Then, the infrared beam was radiated to the plantar surface of right hind-paw thereof through the floor glass, and the withdrawal latency was measured every 5 minutes, 3 times. The intension of the infrared beam was adjusted so that the pre-drug administration latency was about 10 seconds. The cut-off time was set at 25 seconds in order to prevent a paw burn. The average of the latencies was calculated, and then it was defined as the value of the pre-drug administration latency of the test compound.
Next day, 50 μl of each solution of the test compounds [the compounds of the invention, the compounds of the comparative Examples and capsaicin (Sigma, U.S.A.)] or 50 μl of vehicle solvent (reference) was given to a right hind-paw of the rat by intraplantar injection (i. pl.) using a micro-syringe. The test compound was dissolved in a saline solution containing 10% Tween 80 (Sigma, U.S.A) and 10% ethanol to give a 0.03% (W/V) solution. The saline solution containing 10% Tween 80 and 10% ethanol was used as reference. Four hours after i.pl. administration of each the test compound or the reference to the rats, the experiment mentioned above was carried out, and then the post-drug administration latency was measured. The analgesic effects thereof were calculated with the following formula, which was known as a percent maximum possible effect (% MPE). % MPE=[(the value of post-drug latency−the value of pre-drug latency)/(25*−the value of pre-drug latency)]×100 *: cut-off time

In order of rising change in vivo at 300 µg/mL:
1. COc1cc(CC(=O)N[C@H]2CC[C@H](/C=C/CCF)CC2)ccc1O [Example 103]  36.7%
2. CCOC(=O)CC[C@H]1CC[C@H](NC(=O)Cc2ccc(O)c(OC)c2)CC1 [Example 29]  45.8%
3. COc1cc(CC(=O)N[C@H]2CC[C@H](OC(=O)c3ccc(C)cc3)CC2)ccc1O [Example 40, 2-(4-hydroxy-3-methoxyphenyl)-N-[trans-4-(4-methylphenylcarbonyloxy)cyclohexyl]acetamide]  48.3%
4. COc1cc(CC(=O)N[C@H]2CC[C@H](/C=C/CC3CC3)CC2)ccc1O [Example 58]  48.6%
5. COc1cc(CC(=O)N[C@H]2CC[C@H](OCCC(C)C)CC2)ccc1O [Example 37]  49.9%
6. CCOC(=O)/C=C/[C@H]1CC[C@H](NC(=O)Cc2ccc(O)c(OC)c2)CC1 [Example 20]  53.8%
7. COc1cc(CC(=O)N[C@H]2CC[C@H](/C=C/C3CCC3)CC2)ccc1O [Example 57]  54.2%
8. COc1cc(CC(=O)N[C@H]2CC[C@@H](/C=C/CC3CC3)CC2)ccc1O [Example 67]  55.6%
9. COc1cc(CC(=O)N[C@H]2CC[C@H](/C=C/CC(F)(F)F)CC2)ccc1O [Example 102]  56.6%
10. C=CCC[C@H]1CC[C@H](NC(=O)Cc2ccc(O)c(OC)c2)CC1 [Example 74, N-[trans-4-(3-butenyl)cyclohexyl]-2-(4-hydroxy-3-methoxyphenyl)acetamide]  57.1%
11. COc1cc(CC(=O)N[C@H]2CC[C@H](OCCCC(F)(F)F)CC2)ccc1O [Example 38]  57.6%
12. COc1cc(CC(=O)NC2CCC(C3CCCCC3)CC2)ccc1O (centres unmarked) [Example 5]  59.2%
13. COc1cc(CC(=O)NC2CCC3(CCCCC3)CC2)ccc1O [Example 105, 2-(4-hydroxy-3-methoxyphenyl)-N-(spiro[5.5]undec-3-yl)acetamide]  63.4%
14. C/C=C(\CC)[C@H]1CC[C@@H](NC(=O)Cc2ccc(O)c(OC)c2)CC1 [Example 97, N-{cis-4-[(E)-1-ethyl-1-propenyl]-cyclohexyl}-2-(4-hydroxy-3-methoxyphenyl)acetamide]  63.8%
15. COc1cc(CC(=O)NC2CCC(=C(C)C)CC2)ccc1O (centres unmarked) [Example 82, 2-(4-hydroxy-3-methoxyphenyl)-N-(4-isopropylidenecyclohexyl)acetamide]  68.4%
16. COc1cc(CC(=O)N[C@H]2CC[C@H](C3CCC3)CC2)ccc1O [Example 86]  68.6%
17. C/C=C\C[C@H]1CC[C@H](NC(=O)Cc2ccc(O)c(OC)c2)CC1 [Example 94, N-{trans-4-[(Z)-2-butenyl]cyclohexyl}-2-(4-hydroxy-3-methoxyphenyl)acetamide]  69.1%
18. COc1cc(CC(=O)N[C@H]2CC[C@H](CC3CCC3)CC2)ccc1O [Example 93, N-[trans-4-(cyclobutylmethyl)cyclohexyl]-2-(4-hydroxy-3-methoxyphenyl)acetamide]  69.7%
19. COc1cc(CC(=O)N[C@H]2CC[C@H](/C=C/CC(C)C)CC2)ccc1O [Example 56]  70.2%
20. COc1cc(CC(=O)N[C@H]2CC[C@@H](/C=C/C3CC3)CC2)ccc1O [Example 64]  71.1%
21. CCCCC[C@H]1CC[C@H](NC(=O)Cc2ccc(O)c(OC)c2)CC1 [Example 30]  71.3%
22. COc1cc(CC(=O)N[C@H]2CC[C@H](C=C(C)C)CC2)ccc1O [Example 24]  72.4%
23. C/C=C\CC[C@H]1CC[C@H](NC(=O)Cc2ccc(O)c(OC)c2)CC1 [Example 73, 2-(4-hydroxy-3-methoxyphenyl)-N-{trans-4-[(Z)-3-pentenyl]cyclohexyl}acetamide]  74.1%
24. CCC/C=C\[C@H]1CC[C@H](NC(=O)Cc2ccc(O)c(OC)c2)CC1 [Example 17]  74.9%
25. COc1cc(CC(=O)N[C@H]2CC[C@H](C3CCCCC3)CC2)ccc1O [Example 83, N-(trans-4-cyclohexylcyclohexyl)-2-(4-hydroxy-3-methoxyphenyl)acetamide]  77.4%
26. CCC(CC)=C1CCC(NC(=O)Cc2ccc(O)c(OC)c2)CC1 (centres unmarked) [Example 77]  78.6%
27. COc1cc(CC(=O)N[C@H]2CC[C@@H](CCC(C)C)CC2)ccc1O [Example 48, 2-(4-hydroxy-3-methoxyphenyl)-N-[cis-4-(3-methylbutyl)cyclohexyl]acetamide]  79.6%
28. COc1cc(CC(=O)N[C@H]2CC[C@@H](CCCC(C)C)CC2)ccc1O [Example 69]  79.9%
29. COc1cc(CC(=O)N[C@H]2CC[C@H](C3CCCCCC3)CC2)ccc1O [Example 87]  80.1%
30. COc1cc(CC(=O)N[C@H]2CC[C@@H](CC(C)C)CC2)ccc1O [Example 96, 2-(4-hydroxy-3-methoxyphenyl)-N-[cis-4-(2-methylpropyl)cyclohexyl]acetamide]  80.4%
31. COc1cc(CC(=O)N[C@H]2CC[C@H](/C=C\C3CC3)CC2)ccc1O [Example 18]  80.5%
32. CCC/C=C/[C@H]1CC[C@H](NC(=O)Cc2ccc(O)c(OC)c2)CC1 [Example 54]  82.5%
33. COc1cc(CC(=O)NC2CCC(c3ccccc3)CC2)ccc1O (centres unmarked) [Example 6]  82.6%
34. COc1cc(CC(=O)N[C@H]2CC[C@H](CCC3CC3)CC2)ccc1O [Example 32]  85.5%
35. CCCCCC1CCC(NC(=O)Cc2ccc(O)c(OC)c2)CC1 (centres unmarked) [Example 3, 2-(4-hydroxy-3-methoxyphenyl)-N-(4-pentyl-cyclohexyl)acetamide]  89.9%
36. CCC/C=C/[C@H]1CC[C@@H](NC(=O)Cc2ccc(O)c(OC)c2)CC1 [Example 60, 2-(4-hydroxy-3-methoxyphenyl)-N-{cis-4-[(E)-1-pentenyl]cyclohexyl}acetamide]  91.4%
37. CC/C=C/[C@H]1CC[C@H](NC(=O)Cc2ccc(O)c(OC)c2)CC1 [Example 52, N-{trans-4-[(E)-1-butenyl]cyclohexyl}-2-(4-hydroxy-3-methoxyphenyl)acetamide]  91.5%
38. COc1cc(CC(=O)N[C@H]2CC[C@@H](CCC3CCC3)CC2)ccc1O [Example 70]  92.6%
39. COc1cc(CC(=O)N[C@H]2CC[C@H](/C=C\CC(C)C)CC2)ccc1O [Example 15]  94.4%
40. CCC(CC)C1=CCC(NC(=O)Cc2ccc(O)c(OC)c2)CC1 (centres unmarked) [Example 88, 2-(4-hydroxy-3-methoxyphenyl)-N-[4-(3-pentyl)-3-cyclohexenyl]acetamide]  95.5%
41. COc1cc(CC(=O)N[C@H]2CC[C@@H](/C=C\CC(C)C)CC2)ccc1O [Example 51]  96.4%
42. CC/C=C\[C@H]1CC[C@@H](NC(=O)Cc2ccc(O)c(OC)c2)CC1 [Example 49, N-{cis-4-[(Z)-1-butenyl]cyclohexyl}-2-(4-hydroxy-3-methoxyphenyl)acetamide]  97%
43. COc1cc(CC(=O)N[C@H]2CC[C@@H](/C=C/CC(C)C)CC2)ccc1O [Example 65]  100%
44. COc1cc(CC(=O)N[C@H]2CC[C@H](/C=C\C(C)C)CC2)ccc1O [Example 14, 2-(4-hydroxy-3-methoxyphenyl)-N-{trans-4-[(Z)-3-methyl-1-butenyl]cyclohexyl}acetamide]  100%
